This is an account of results in publication PMC4051630, “A Comparison of Protein Kinases Inhibitor Screening Methods Using Both Enzymatic Activity and Binding Affinity Determination” (PLoS ONE, 2014).

Experiment in all cases: Differential Scanning Fluorimetry (DSF) Tm shift
What all share (assay type): binding

For one test, the target named is T1, CHK2 Catalytic Domain (Homo sapiens, UniProt O96017).
T1 construct: For all of them, we expressed and purified the catalytic domain separately; His-tag; made in house; host or cells: Escherichia coli
T1 sequence (O96017 220-486 limits assumed): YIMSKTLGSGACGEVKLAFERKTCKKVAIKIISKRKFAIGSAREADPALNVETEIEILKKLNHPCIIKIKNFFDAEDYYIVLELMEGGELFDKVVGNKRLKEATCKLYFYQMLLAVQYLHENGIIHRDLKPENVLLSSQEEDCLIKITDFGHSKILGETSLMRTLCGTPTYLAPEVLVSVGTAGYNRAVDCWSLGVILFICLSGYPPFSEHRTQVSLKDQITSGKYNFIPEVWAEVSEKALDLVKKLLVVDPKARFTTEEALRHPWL
To be noted: 2 µM protein, 10 µM inhibitor, average of 3 experiments, each in duplicate.

The target in test [1] is T2, PAK4 Catalytic Domain+PBD (Homo sapiens, UniProt O96013).
T2 construct: for 8, we also made a longer version containing one or more additional domains; His-tag; made in house; host or cells: Escherichia coli
T2 sequence (O96013 whole entry, the tested form may be a part): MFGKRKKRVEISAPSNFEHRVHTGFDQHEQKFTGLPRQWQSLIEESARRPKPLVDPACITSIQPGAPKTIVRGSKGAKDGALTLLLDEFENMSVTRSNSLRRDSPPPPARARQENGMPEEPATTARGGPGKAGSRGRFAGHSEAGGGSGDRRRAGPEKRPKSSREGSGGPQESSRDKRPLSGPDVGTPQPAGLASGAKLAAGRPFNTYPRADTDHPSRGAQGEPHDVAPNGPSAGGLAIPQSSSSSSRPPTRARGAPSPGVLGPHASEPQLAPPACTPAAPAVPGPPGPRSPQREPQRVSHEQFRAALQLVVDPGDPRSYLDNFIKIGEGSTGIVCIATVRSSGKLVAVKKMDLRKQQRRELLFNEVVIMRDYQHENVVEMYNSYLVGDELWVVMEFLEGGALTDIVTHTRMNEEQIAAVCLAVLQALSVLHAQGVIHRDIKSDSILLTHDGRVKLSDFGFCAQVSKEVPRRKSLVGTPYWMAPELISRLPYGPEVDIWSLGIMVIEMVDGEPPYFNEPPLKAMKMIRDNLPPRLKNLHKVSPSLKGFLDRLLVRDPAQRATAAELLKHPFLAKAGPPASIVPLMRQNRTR
To be noted: 2 µM protein, 10 µM inhibitor, average of 3 experiments, each in duplicate.

In test [2] the target is T3, STK3 Catalytic domain+SARAH (Homo sapiens, UniProt Q13188).
T3 construct: for 8, we also made a longer version containing one or more additional domains; His-tag; made in house; host or cells: Escherichia coli
T3 sequence (Q13188 1-491): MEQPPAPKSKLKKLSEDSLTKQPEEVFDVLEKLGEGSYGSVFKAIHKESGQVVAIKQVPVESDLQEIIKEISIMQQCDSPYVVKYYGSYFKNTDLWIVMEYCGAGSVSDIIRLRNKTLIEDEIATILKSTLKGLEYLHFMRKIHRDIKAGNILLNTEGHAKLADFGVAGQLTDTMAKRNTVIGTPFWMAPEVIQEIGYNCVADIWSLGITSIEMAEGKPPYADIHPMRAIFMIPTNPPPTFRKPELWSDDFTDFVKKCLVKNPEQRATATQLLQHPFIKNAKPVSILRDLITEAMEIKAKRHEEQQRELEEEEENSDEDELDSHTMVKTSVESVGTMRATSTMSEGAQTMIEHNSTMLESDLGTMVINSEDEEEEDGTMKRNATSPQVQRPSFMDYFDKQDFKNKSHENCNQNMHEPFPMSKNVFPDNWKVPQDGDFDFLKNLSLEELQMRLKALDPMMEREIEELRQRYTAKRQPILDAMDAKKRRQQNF
The settings on record: 2 µM protein, 10 µM inhibitor, average of 3 experiments, each in duplicate.

A further test addresses T4, FES Catalytic Domain (Homo sapiens, UniProt P07332).
T4 construct: For all of them, we expressed and purified the catalytic domain separately; His-tag; made in house; host or cells: Escherichia coli
To be noted: 2 µM protein, 10 µM inhibitor, average of 3 experiments, each in duplicate.

For another test, the target named is T5, PAK4 Catalytic Domain (Homo sapiens, UniProt O96013).
T5 construct: For all of them, we expressed and purified the catalytic domain separately; His-tag; made in house; host or cells: Escherichia coli
T5 sequence (O96013 321-572 limits assumed): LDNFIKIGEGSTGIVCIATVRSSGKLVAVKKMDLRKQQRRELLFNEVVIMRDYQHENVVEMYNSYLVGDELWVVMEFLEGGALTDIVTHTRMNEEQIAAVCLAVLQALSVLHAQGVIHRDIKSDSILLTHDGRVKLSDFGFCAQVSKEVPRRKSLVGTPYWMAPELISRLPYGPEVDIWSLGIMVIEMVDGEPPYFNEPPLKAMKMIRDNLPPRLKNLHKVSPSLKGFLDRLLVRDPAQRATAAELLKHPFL
The settings on record: 2 µM protein, 10 µM inhibitor, average of 3 experiments, each in duplicate.

The target of the next test is T6, FES Catalytic Domain+SH2 (Homo sapiens, UniProt P07332).
T6 construct: for 8, we also made a longer version containing one or more additional domains; His-tag; made in house; host or cells: Escherichia coli
T6 sequence (P07332 448-822 limits assumed): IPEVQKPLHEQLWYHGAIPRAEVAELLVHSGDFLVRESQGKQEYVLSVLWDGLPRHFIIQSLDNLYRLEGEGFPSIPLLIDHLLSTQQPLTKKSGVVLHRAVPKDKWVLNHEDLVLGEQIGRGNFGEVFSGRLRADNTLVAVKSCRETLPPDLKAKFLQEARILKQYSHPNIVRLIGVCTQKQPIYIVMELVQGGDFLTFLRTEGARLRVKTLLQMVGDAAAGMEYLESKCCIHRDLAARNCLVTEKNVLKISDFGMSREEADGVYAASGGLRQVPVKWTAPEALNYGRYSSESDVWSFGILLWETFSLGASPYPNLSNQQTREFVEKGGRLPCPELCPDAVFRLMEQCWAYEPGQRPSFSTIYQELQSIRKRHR
To be noted: 2 µM protein, 10 µM inhibitor, average of 3 experiments, each in duplicate.

The target in test [3] is SRC Catalytic Domain+SH2+SH3 (Homo sapiens, UniProt P12931). The settings on record: 2 µM protein, 10 µM inhibitor, average of 3 experiments, each in duplicate.
Chain of SRC Catalytic Domain+SH2+SH3 (P12931 84-523 limits assumed): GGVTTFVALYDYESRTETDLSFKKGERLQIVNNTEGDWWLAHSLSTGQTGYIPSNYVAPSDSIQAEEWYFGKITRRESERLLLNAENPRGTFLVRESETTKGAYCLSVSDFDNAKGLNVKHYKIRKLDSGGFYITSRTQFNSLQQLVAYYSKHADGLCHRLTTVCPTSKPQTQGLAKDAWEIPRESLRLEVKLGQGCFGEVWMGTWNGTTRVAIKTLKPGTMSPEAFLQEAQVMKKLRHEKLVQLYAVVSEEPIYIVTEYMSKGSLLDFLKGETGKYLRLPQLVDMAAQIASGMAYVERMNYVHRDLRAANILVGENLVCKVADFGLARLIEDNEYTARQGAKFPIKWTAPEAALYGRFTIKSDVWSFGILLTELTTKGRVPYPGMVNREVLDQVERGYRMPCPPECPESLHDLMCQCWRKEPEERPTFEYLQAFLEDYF
Another test concerns the target T7, DMPK Catalytic Domain (Homo sapiens, UniProt Q09013).
T7 construct: For all of them, we expressed and purified the catalytic domain separately; His-tag; made in house; host or cells: Escherichia coli
T7 sequence (Q09013 71-339 limits assumed): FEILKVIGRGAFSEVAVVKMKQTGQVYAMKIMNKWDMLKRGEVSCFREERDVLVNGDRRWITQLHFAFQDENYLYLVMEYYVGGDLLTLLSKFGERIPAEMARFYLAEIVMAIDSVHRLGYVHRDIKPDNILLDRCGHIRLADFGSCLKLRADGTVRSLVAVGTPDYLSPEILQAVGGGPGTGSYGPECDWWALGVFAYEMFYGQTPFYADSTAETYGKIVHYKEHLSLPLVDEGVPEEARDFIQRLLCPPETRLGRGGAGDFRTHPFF
To be noted: 2 µM protein, 10 µM inhibitor, average of 3 experiments, each in duplicate.

A further test addresses T8, STK3 Catalytic Domain (Homo sapiens, UniProt Q13188).
T8 construct: For all of them, we expressed and purified the catalytic domain separately; His-tag; made in house; host or cells: Escherichia coli
T8 sequence (Q13188 27-278 limits assumed): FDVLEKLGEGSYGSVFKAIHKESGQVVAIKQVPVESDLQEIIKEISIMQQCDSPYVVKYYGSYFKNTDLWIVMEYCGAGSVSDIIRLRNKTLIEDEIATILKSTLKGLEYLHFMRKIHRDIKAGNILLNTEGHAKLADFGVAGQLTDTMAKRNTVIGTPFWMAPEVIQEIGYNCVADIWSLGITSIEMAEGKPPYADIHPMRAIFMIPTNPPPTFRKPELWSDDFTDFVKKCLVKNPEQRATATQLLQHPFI
To be noted: 2 µM protein, 10 µM inhibitor, average of 3 experiments, each in duplicate.

A further test addresses T9, FAK2 Catalytic Domain (Homo sapiens, UniProt Q14289).
T9 construct: For all of them, we expressed and purified the catalytic domain separately; His-tag; made in house; host or cells: Escherichia coli
To be noted: 2 µM protein, 10 µM inhibitor, average of 3 experiments, each in duplicate.

Another test addresses T10, AKT3 Catalytic Domain (Homo sapiens, UniProt Q9Y243).
T10 construct: AKT3 (Q9Y243); CD; His-tag; made in house; host or cells: Escherichia coli
To be noted: 2 µM protein, 10 µM inhibitor, average of 3 experiments, each in duplicate.

The next test addresses T11, CDK2 + Cyclin A (Homo sapiens, UniProt P24941).
T11 construct: CDK2 (P24941); 1–299; His-tag; made in house; host or cells: Escherichia coli
To be noted: CDK2 + Cyclin A; 2 µM protein, 10 µM inhibitor; average of 3 experiments, each in duplicate.

A further test concerns the target T12, PAK7 Catalytic Domain (Homo sapiens, UniProt Q9P286).
T12 construct: For all of them, we expressed and purified the catalytic domain separately; His-tag; made in house; host or cells: Escherichia coli
The settings on record: 2 µM protein, 10 µM inhibitor, average of 3 experiments, each in duplicate.

T9 sequence (Q14289 425-683 limits assumed): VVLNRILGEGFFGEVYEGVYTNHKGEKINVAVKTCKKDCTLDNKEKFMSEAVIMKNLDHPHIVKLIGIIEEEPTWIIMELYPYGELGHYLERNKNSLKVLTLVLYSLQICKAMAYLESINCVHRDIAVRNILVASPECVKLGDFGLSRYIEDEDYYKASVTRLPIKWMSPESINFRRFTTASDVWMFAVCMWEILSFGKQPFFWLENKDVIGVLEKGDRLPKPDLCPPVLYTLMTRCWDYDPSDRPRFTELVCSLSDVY
T12 sequence (Q9P286 449-700 limits assumed): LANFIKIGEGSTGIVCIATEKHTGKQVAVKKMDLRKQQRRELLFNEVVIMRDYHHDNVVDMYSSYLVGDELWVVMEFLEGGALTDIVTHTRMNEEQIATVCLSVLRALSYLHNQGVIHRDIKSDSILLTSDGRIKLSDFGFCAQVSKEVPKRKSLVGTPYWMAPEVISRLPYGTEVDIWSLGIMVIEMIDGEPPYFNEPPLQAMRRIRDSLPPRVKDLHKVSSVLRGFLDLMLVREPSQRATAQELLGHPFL
T4 sequence (P07332 561-822 limits assumed): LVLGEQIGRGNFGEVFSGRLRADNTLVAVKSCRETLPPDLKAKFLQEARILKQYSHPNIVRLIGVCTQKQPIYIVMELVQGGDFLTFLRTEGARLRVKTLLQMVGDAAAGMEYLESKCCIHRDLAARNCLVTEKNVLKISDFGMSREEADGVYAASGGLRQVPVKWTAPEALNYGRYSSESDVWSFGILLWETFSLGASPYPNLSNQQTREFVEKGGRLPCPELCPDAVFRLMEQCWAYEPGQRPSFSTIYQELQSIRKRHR
T10 sequence (Q9Y243 122-479): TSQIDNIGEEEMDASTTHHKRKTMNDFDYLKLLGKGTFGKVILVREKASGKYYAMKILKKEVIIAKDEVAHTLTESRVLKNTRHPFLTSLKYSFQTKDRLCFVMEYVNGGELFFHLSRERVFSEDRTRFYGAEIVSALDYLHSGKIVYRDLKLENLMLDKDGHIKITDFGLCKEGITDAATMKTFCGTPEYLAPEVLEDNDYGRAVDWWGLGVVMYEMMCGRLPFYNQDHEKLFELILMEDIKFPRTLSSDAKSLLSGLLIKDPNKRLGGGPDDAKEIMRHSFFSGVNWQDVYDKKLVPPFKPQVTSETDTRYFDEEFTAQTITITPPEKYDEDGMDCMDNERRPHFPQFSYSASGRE

With `Brc1c(Br)c(Br)c2n[nH]nc2c1Br` [Casein Kinase II Inhibitor I], the “Melting temperature (Tm) shift” value at CHK2 Catalytic Domain came to 2.2 degrees Celcius; in [1] it was 0.9 degrees Celcius; in test [2] it was 0.4 degrees Celcius; on FES Catalytic Domain it was 0.0 degrees Celcius; on PAK4 Catalytic Domain it was 0.2 degrees Celcius; at FES Catalytic Domain+SH2, 0.8 degrees Celcius. Also, the “Melting temperature (Tm) shift” value was 0.2 degrees Celcius in test [3]; 0.6 degrees Celcius on DMPK Catalytic Domain; 1.1 degrees Celcius on STK3 Catalytic Domain; 0.1 degrees Celcius at FAK2 Catalytic Domain; 0.1 degrees Celcius on AKT3 Catalytic Domain.

On to `O=C1C(Cl)=C(N2C(=O)CCC2=O)C(=O)c2ccccc21` [MEK Inhibitor II], for which the “Melting temperature (Tm) shift” value on CHK2 Catalytic Domain is given as 0.0 degrees Celcius; on CDK2 + Cyclin A, 0.1 degrees Celcius; in test [2] it was 0.1 degrees Celcius; on FES Catalytic Domain it was 0.0 degrees Celcius; on PAK4 Catalytic Domain, 0.0 degrees Celcius; on FES Catalytic Domain+SH2, 0.0 degrees Celcius. Moreover, the “Melting temperature (Tm) shift” value in test [3] amounted to 0.0 degrees Celcius; on AKT3 Catalytic Domain it was 0.3 degrees Celcius; at PAK7 Catalytic Domain it was 0.0 degrees Celcius.

Take “Akt Inhibitor VIII, Isozyme-Selective, Akti-1/2”: the “Melting temperature (Tm) shift” value came to 0.4 degrees Celcius on CHK2 Catalytic Domain, 0.2 degrees Celcius at CDK2 + Cyclin A, 0.1 degrees Celcius on FAK2 Catalytic Domain and 0.0 degrees Celcius on PAK7 Catalytic Domain.

Take `CN(C)c1nc2c(Br)c(Br)c(Br)c(Br)c2[nH]1` [Casein Kinase II Inhibitor II, DMAT]: the “Melting temperature (Tm) shift” value on CHK2 Catalytic Domain was determined as 0.3 degrees Celcius; in [1], 0.3 degrees Celcius; on CDK2 + Cyclin A it was 0.5 degrees Celcius; in [2] it was 0.4 degrees Celcius; at PAK4 Catalytic Domain it was 0.2 degrees Celcius; in test [3], 0.9 degrees Celcius. The “Melting temperature (Tm) shift” value at DMPK Catalytic Domain came to 0.4 degrees Celcius; on STK3 Catalytic Domain, 0.3 degrees Celcius; on FAK2 Catalytic Domain, 3.2 degrees Celcius; on PAK7 Catalytic Domain, 4.1 degrees Celcius.

`O=C1c2ccccc2-[n+]2ccc3c([nH]c4ccccc43)c21` [Fascaplysin, Synthetic, Fascaplysin]: the “Melting temperature (Tm) shift” value was found to be 0.2 degrees Celcius on FES Catalytic Domain, 0.0 degrees Celcius on FES Catalytic Domain+SH2, 0.4 degrees Celcius on DMPK Catalytic Domain and 0.1 degrees Celcius at AKT3 Catalytic Domain.

`CC(=O)O/N=C1/C(=C2/C(=O)Nc3cc(Br)ccc32)Nc2ccccc21` [GSK-3 Inhibitor X]: the “Melting temperature (Tm) shift” value was 1.0 degrees Celcius in test [1]; 0.5 degrees Celcius in test [2]; 0.4 degrees Celcius at FES Catalytic Domain; 0.6 degrees Celcius on PAK4 Catalytic Domain; 0.0 degrees Celcius at FES Catalytic Domain+SH2; 0.5 degrees Celcius on DMPK Catalytic Domain. The “Melting temperature (Tm) shift” value on AKT3 Catalytic Domain and on PAK7 Catalytic Domain was 0.1 degrees Celcius each time.

With `COc1ccc2c(c1)c1c3c(c4c5ccccc5n(C)c4c1n2CC(O)CN(C)C)C(=O)NC3=O.Cl` (stereo not drawn) [Gö 7874, Hydrochloride], the “Melting temperature (Tm) shift” value at CHK2 Catalytic Domain is recorded as 1.1 degrees Celcius; in test [1], 0.1 degrees Celcius; on CDK2 + Cyclin A, 0.2 degrees Celcius; in [2] it was 2.2 degrees Celcius; at FES Catalytic Domain, 0.3 degrees Celcius; on FES Catalytic Domain+SH2, 0.0 degrees Celcius. For the same compound, the “Melting temperature (Tm) shift” value at DMPK Catalytic Domain was 0.2 degrees Celcius; at STK3 Catalytic Domain it was 1.4 degrees Celcius; at FAK2 Catalytic Domain, 0.7 degrees Celcius; at AKT3 Catalytic Domain it was 0.2 degrees Celcius; at PAK7 Catalytic Domain it was 0.1 degrees Celcius.

Regarding `O=C1Nc2ccc(I)cc2/C1=C1/Nc2ccccc2/C1=N\O` [Indirubin-3ʹ′-monoxime, 5-Iodo-, Indirubin-3′ -monoxime, 5-Iodo-], the “Melting temperature (Tm) shift” value in [1] is recorded as 2.3 degrees Celcius; in test [2], 5.6 degrees Celcius; at PAK4 Catalytic Domain, 0.3 degrees Celcius; on STK3 Catalytic Domain, 1.2 degrees Celcius.

On to `O=c1c2ccccc2[nH]c(=S)n1CCN1CCC(=C(c2ccc(F)cc2)c2ccc(F)cc2)CC1` [Diacylglycerol Kinase Inhibitor II], for which the “Melting temperature (Tm) shift” value in test [1] was 0.2 degrees Celcius; on FES Catalytic Domain, 0.7 degrees Celcius.

On to `CC#CC(=O)Nc1cc2c(Nc3ccc(F)c(Cl)c3)ncnc2cn1` [EGFR/ErbB-2/ErbB-4 Inhibitor], for which the “Melting temperature (Tm) shift” value on CHK2 Catalytic Domain was 0.3 degrees Celcius; in test [1] it was 0.1 degrees Celcius; on FES Catalytic Domain it was 0.0 degrees Celcius; in test [3] it was 0.0 degrees Celcius; at STK3 Catalytic Domain, 0.2 degrees Celcius; at AKT3 Catalytic Domain it was 0.0 degrees Celcius. Moreover, on PAK7 Catalytic Domain, the “Melting temperature (Tm) shift” value is 0.0 degrees Celcius.

Take `CC[C@@H](CO)Nc1nc(NCc2ccccc2)c2ncn(C(C)C)c2n1` (single isomer, unassigned) [Roscovitine, (S)-Isomer]: the “Melting temperature (Tm) shift” value at CHK2 Catalytic Domain is on record as 0.6 degrees Celcius; in test [1] it was 2.6 degrees Celcius; in test [2], 0.0 degrees Celcius; on FES Catalytic Domain, 1.2 degrees Celcius; on PAK4 Catalytic Domain it was 1.4 degrees Celcius; at FES Catalytic Domain+SH2, 0.9 degrees Celcius. Moreover, the “Melting temperature (Tm) shift” value on DMPK Catalytic Domain is recorded as 0.3 degrees Celcius; at STK3 Catalytic Domain, 0.0 degrees Celcius; at FAK2 Catalytic Domain it was 0.2 degrees Celcius; at AKT3 Catalytic Domain, 0.0 degrees Celcius; at PAK7 Catalytic Domain it was 0.7 degrees Celcius.

In the case of `O=C1NC(=O)c2c1c1c3ccccc3[nH]c1c1[nH]c3ccccc3c21` [Arcyriaflavin A, Synthetic, Arcyriaflavin A], the “Melting temperature (Tm) shift” value in test [1] is given as 0.5 degrees Celcius; at PAK4 Catalytic Domain it was 0.2 degrees Celcius; at AKT3 Catalytic Domain, 0.0 degrees Celcius.
